From US20110217394A1, “Iridoid Based Formulations” (priority 2000, published 2011)

Assays:
E. coli PQ37 [1] = assay: Anti-genotoxicity test (SOS-chromotest with 4NQO, Example Three); assay type: cell-based; details: for reduction in genotoxicity: 250 μg iridoid plus 1.25 μg mL^-1 4NQO; for induction factor of 4NQO plus iridoid compared with vehicle blank: 250 μg mL^-1 iridoid plus 1.25 μg mL^-1 4NQO
Method: The primary DNA damage test was performed again, similar to the method described above. […] Induction factors were calculated in the same manner as described above.

[2] = Thermal stability of DAA under pasteurization conditions (HPLC); assay type: physicochemical; details: 90° C. at pH 3.3 for one minute
Method: (§1) Tahitian noni fruit puree as used in this example is the mashed whole fruit, excluding seeds and pericarp. The fruits were originally collected from the Tahitian Islands. One gram of the puree was diluted with 5 mL of H2O—MeOH (1:1) and mixed thoroughly. The solution was then filtered through a nylon microfilter (0.45-μm pore size); the solution was collected into a 5 mL volumetric flask for HPLC analysis. Four batches of noni puree were analyzed in the experiments. Voucher specimens of the noni fruit puree are deposited in our lab. To test iridoid stability, a DAA solution of 0.5 mg/mL was prepared with MeOH. This solution was heated in a water-bath at 90° C. for 1 min, cooled to room temperature, and analyzed by HPLC.
Noni fruit juice is usually subjected to heat pasteurization during commercial processing. Pasteurization is usually employed in noni industry, i.e., heating up to 87.7° C. for several seconds. In this study, the stability of DAA was conducted. DAA was exposed to 90° C. at pH 3.3 for one minute to determine its thermal stability at acidic conditions.

mammalian cells = details: cited from earlier work
E. coli PQ37 [3] = assay type: cell-based; details: 250 ug mL^-1 iridoid plus 1.25 ug mL^-1 4NQO; blank = 1
Method: The SOS-chromotest in E. coli PQ37 was used to determine the potential for iridoids in noni fruit from French Polynesia to prevent primary DNA damage. E. coli PQ37 was incubated at 37° C. in the presence of deacetylasperulosidic acid and asperulosidic acid at a concentration of 250 ug mL^−1 in a 96-well plate. Replicate samples were evaluated. […] Following incubation with the samples, 5-bromo-4-chloro-3-indolyl-β-D-galactopyranoside was added to the wells to detect β-galactosidase enzyme activity, which is induced during SOS repair of damaged DNA. The samples were again incubated for 90 minutes and the absorbances of the samples, blank and positive control were measured at 620 nm with a microplate reader. The β-galactosidase enzyme activity induction factor of each material was calculated by dividing the absorbance of the sample at 620 nm by that of the blank, while also correcting for cell viability.

E. coli PQ37 [4] = assay: Primary DNA damage test (SOS-chromotest); assay type: cell-based; details: for mean induction factor: 1000 μg mL^-1, less than two indicates absence of genotoxic activity; for induction of SOS repair: all concentrations tested, 7.81-1000 μg mL^-1
Method: The SOS-chromotest in E. coli PQ37 was used to determine the potential for DAA and AA to induce primary DNA damage. This test was carried out according to the previously developed method (Fish et al., 1987). […] E. coli PQ37 was incubated in LB medium in a 96-well plate at 37° C. in the presence of DAA or AA for 2 hours. The DAA and AA concentrations tested were 7.81, 15.6, 31.2, 62.5, 125, 250, 500, and 1000 μg mL^−1. Samples were evaluated in triplicate. Following incubation with the samples, 5-bromo-4-chloro-3-indolyl-β-D-galactopyranoside was added to the wells to detect β-galactosidase enzyme activity, which is induced during SOS repair of damaged DNA. Nitrophenyl phosphate is also added to the wells to measure alkaline phosphatase activity, an indicator of cell viability. The samples were again incubated and the absorbances of the samples, blanks and controls were measured at 410 and 620 nm with a microplate reader. […] The induction factor of each material was calculated by dividing the absorbance of the sample at 620 nm by that of the blank, while also correcting for cell viability. Induction factors less than two indicate an absence of genotoxic activity.

[5] = HPLC-PDA quantitation of iridoids (DAA, AA), with method validation, precision and stability assays; details: fresh noni juice; for Amount detected, Inter-day: inter-day precision and stability assay over 3 consecutive days; for Amount detected, Day 1 / Amount detected, Day 2 / Amount detected, Day 3: intra-day precision and stability assay; for Amount detected, Day 1: n = 3, Day 1; for Amount detected, Day 2: n = 3, Day 2; for Amount detected, Day 3: n = 3, Day 3
Source text: Acetonitrile (MeCN), methanol (MeOH), and water (H2O) of HPLC grade were obtained from Sigma-Aldrich (St. Louis, Mo., USA). Formic acid of analytical grade was purchased from Spectrum Chemical Mfg. Corp. (New Brunswick, N.J., USA). The chemical standard deacetylasperulosidic acid (DAA, 1) and asperulosidic acid (AA, 2) were isolated from noni fruits in our laboratory. […] They were accurately weighed and then dissolved in an appropriate volume of MeCN to produce corresponding stock solutions. The working standard solution of 1 and 2 for the calibration curve was prepared by diluting the stock solution with MeOH in seven concentration increments ranging from 0.00174-1.74 and 0.0016-0.80 mg/mL, respectively. All stock and working solutions were maintained at […] in a refrigerator. The calibration curves of standards were plotted after linear regression of the peak areas versus concentrations.
as §1
Chromatographic separation was performed on a Waters 2690 separations module coupled with 996 PDA detectors, and equipped with an Atlantis C18 column (4.6 mm×250 mm; 5 Waters Corporation, Milford, Mass., USA). The pump was connected to two mobile phases: A; MeCN, and B; 0.1% formic acid in H2O (v/v), and eluted at a flow rate of 0.8 mL/min. The mobile phase was programmed consecutively in linear gradients as follows: 0-5 min, 0% A; and 40 min, 30% A. The PDA detector was monitored in the range of 210-400 nm (235 nm was selected for quantitative analysis). The injection volume was 10 μL for each of the sample solutions. The column temperature was maintained at 25° C. Data collection and integration were performed using Waters Millennium software revision 32.
The limits of detection (LOD) and quantitation (LOQ) were defined as the lowest concentrations of analytes in a sample that can be detected and quantified. These LOD and LOQ limits were determined on the basis of signal-to-noise ratios (S/N) of 3:1 and 10:1, respectively. The working solutions of standards 1 and 2 for LOD and LOQ were prepared by diluting them sequentially. The intra- and inter-day precision assays, as well as stability tests were performed by following the method applied to the sample analysis for 3 consecutive days. Accuracy of the method (recovery) was assessed by the recovery percentage of iridoids 1 and 2 in the spiked samples. The noni fruit puree samples were spiked with standards at 3 different concentrations (equivalent to 50%, 100% and 150% concentration of 1 and 2 in the samples). The recovery percentage was calculated using the ratio of concentration detected (actual) to those spiked (theoretical). Variation was evaluated by the relative standard deviation (RSD) of triplicate injections in the HPLC experiments.
The iridoid content, inclusive of deacetylasperulosidic acid (DAA) and asperulosidic acid (AA), was determined by HPLC, according to a previously reported method (Deng et al., 2010 b). Other significant secondary metabolites, such as scopoletin, rutin, and quercetin, were also determined by HPLC (Deng et al., 2010 a).
HPLC grade acetonitrile (MeCN), methanol (MeOH), and water (H2O) were obtained from Sigma-Aldrich (St. Louis, Mo., USA). Analytical grade formic acid was purchased from Spectrum Chemical Mfg. Corp. (New Brunswick, N.J., USA). […]

[6] = 7.81 μg mL^−1, E. coli PQ37, 2 hours
[7] = 15.6 μg mL^−1, E. coli PQ37, 2 hours
[8] = 31.2 μg mL^−1, E. coli PQ37, 2 hours
[9] = 62.5 μg mL^−1, E. coli PQ37, 2 hours
[10] = 125 μg mL^−1, E. coli PQ37, 2 hours
[11] = 250 μg mL^−1, E. coli PQ37, 2 hours
[12] = 500 μg mL^−1, E. coli PQ37, 2 hours
[13] = 1000 μg mL^−1, E. coli PQ37, 2 hours

Row | Compound | reduction in genotoxicity (E. coli PQ37 [1]) [%] | induction factor of 4NQO plus iridoid compared with vehicle blank (E. coli PQ37 [1]) | thermal stability (DAA content before and after heating) [2] | genotoxicity in mammalian cells (mammalian cells) | β-galactosidase enzyme activity induction factor of iridoid plus 4NQO (mean±standard deviation) (E. coli PQ37 [3]) | Induction factor (E. coli PQ37 [4]; [6]) | Induction factor (E. coli PQ37 [4]; [7]) | Induction factor (E. coli PQ37 [4]; [8]) | Induction factor (E. coli PQ37 [4]; [9]) | Induction factor (E. coli PQ37 [4]; [10]) | Induction factor (E. coli PQ37 [4]; [11]) | Induction factor (E. coli PQ37 [4]; [12]) | mean induction factor (E. coli PQ37 [4]) | Induction factor (E. coli PQ37 [4]; [13]) | induction of SOS repair (E. coli PQ37 [4]) | Amount detected, Inter-day [5] [mg/mL] | Amount detected, Day 1 [5] [mg/mL] | Amount detected, Day 2 [5] [mg/mL] | Amount detected, Day 3 [5] [mg/mL]
1 | O=C(O)C1=CO[C@@H](O[C@@H]2O[C@H](CO)[C@@H](O)[C@H](O)[C@H]2O)[C@@H]2C(CO)=C[C@H](O)[C@H]12 [DAA, deacetylasperulosidic acid] | 98.96 | no statistical difference from that of the vehicle blank | no difference in the DAA contents before and after heating | non-genotoxic | 0.98±0.02 | 0.93 ± 0.13 | 1.03 ± 0.16 | 1.04 ± 0.08 | 1.05 ± 0.07 | 1.00 ± 0.08 | 1.06 ± 0.06 | 1.03 ± 0.02 | 1.07 | 1.07 ± 0.14 | did not induce any SOS repair at a frequency significantly above that of the blank | 1.297 | 1.308 | 1.291 | 1.291
2 | CC(=O)OCC1=C[C@H](O)[C@@H]2C(C(=O)O)=CO[C@@H](O[C@@H]3O[C@H](CO)[C@@H](O)[C@H](O)[C@H]3O)[C@H]12 [AA, asperulosidic acid] | 99.22 | no statistical difference from that of the vehicle blank | – | non-genotoxic | – | 1.01 ± 0.05 | 1.04 ± 0.11 | 0.99 ± 0.06 | 1.04 ± 0.13 | 1.02 ± 0.08 | 1.11 ± 0.16 | 1.07 ± 0.04 | 1.09 | 1.09 ± 0.03 | did not induce any SOS repair at a frequency significantly above that of the blank | 0.281 | 0.276 | 0.281 | 0.287
